According to ChEMBL document CHEMBL4402596, “Pyridine-Embedded Phenothiazinium Dyes as Lysosome-Targeted Photosensitizers for Highly Efficient Photodynamic Antitumor Therapy” (J Med Chem, 2020):
Values belong to the compound of their own block, whether it stands above or below them. The source made the active and inactive calls. The calls are words filed in the database; no cut-off is given here.

Experiments:
[1] = Induction of singlet oxygen generation in EtOH assessed as singlet oxygen quantum yield irradiated with 12.8 J light for 2 mins by DPBF-based assay; format: functional
[2] = tested on: A549; assay: Cytotoxicity against human A549 cells assessed as reduction in cell viability incubated for 24 hrs in dark by MTT assay; format: cell-based; details: A549, 24 h
[3] = tested on: A549; assay: Ratio of IC50 for cytotoxicity against human A549 cells in dark to IC50 for cytotoxicity against human A549 cells in light at 3.2J/cm2
[4] = tested on: MCF7; assay: Cytotoxicity against human MCF7 cells assessed as reduction in cell viability incubated for 24 hrs in dark by MTT assay; format: cell-based; details: MCF7, 24 h
[5] = tested on: HT-29; assay: Induction of ROS generation in human HT-29 cells at 0.5 uM incubated for 0.5 hrs followed by DCFH-DA addition for 0.5 hrs then irradiated with light for 30 sec and measured after 15 mins by flow cytometry; format: functional, cell-based
[6] = Drug localization in lysosome of human HT-29 cells at 0.5 uM measured after 1 hr in dark by Lyso-tracker based confocal laser scanning microscopy; format: ADME, subcellular; details: ht-29, 1 h
[7] = tested on: MCF7; assay: Ratio of IC50 for cytotoxicity against human MCF7 cells in dark to IC50 for cytotoxicity against human MCF7 cells in light at 3.2J/cm2
[8] = tested on: HT-29; assay: Cytotoxicity against human HT-29 cells assessed as reduction in cell viability preincubated for 1 hr followed by light irradiation at 3.2 J/cm2 for 30 sec and measured after 24 hrs by MTT assay; format: functional, cell-based; details: HT-29, light or radiation study
[9] = tested on: A549; assay: Cytotoxicity against human A549 cells assessed as reduction in cell viability incubated for 1 hr followed by light irradiation at 3.2 J/cm2 for 30 sec and measured after 24 hrs by MTT assay; format: functional, cell-based; details: A549, light or radiation study
[10] = tested on: HT-29; assay: Cytotoxicity against human HT-29 cells assessed as reduction in cell viability incubated for 24 hrs in dark by MTT assay; format: cell-based; details: HT-29, 24 h
[11] = tested on: HT-29; assay: Ratio of IC50 for cytotoxicity against human HT-29 cells in dark to IC50 for cytotoxicity against human HT-29 cells in light at 3.2J/cm2
[12] = tested on: HT-29; assay: Cytotoxicity against human HT-29 cells assessed as reduction in cell viability preincubated for 1 hr followed by light irradiation at 3.2 J/cm2 for 10 to 180 secs and measured after 24 hrs by MTT assay; format: functional, cell-based
[13] = Photostability of compound assessed as decrease in rate of photo decomposition at 5 uM irradiated with LED light (630 nm, 106 mW cm'-2) upto 12 mins by UV spectrophotometry
[14] = tested on: MCF7; assay: Cytotoxicity against human MCF7 cells assessed as reduction in cell viability incubated for 1 hr followed by light irradiation for 30 sec at 3.2 J/cm2 and measured after 24 hrs by MTT assay; format: functional, cell-based; details: MCF7, light or radiation study
[15] = tested on: HT-29; assay: Induction of morphological changes in nucleus of human HT-29 cells at 0.5 uM incubated in dark for 1 hr followed by irradiated with LED light for 30 sec and measured after 18 hrs by Hoechst 33342 staining based fluorescence microscopy; format: functional, cell-based
[16] = Toxicity in BALB/c mouse xenografted with human HT-29 cells assessed as damage in kidney at 2 mg/kg, iv after 2 hrs irradiated with light and measured on day 24; format: organism-based; details: in vivo
[17] = Drug localization in lysosome of human WI38 cells at 0.5 uM measured after 1 hr by LAMP1-GFP based confocal laser scanning microscopy; format: ADME, subcellular; details: wi-38, 1 h
[18] = AUC (0 to t) in Sprague-Dawley rat at 2 mg/kg, iv measured upto 24 hrs by fluorescence based assay; format: ADME, organism-based; details: in vivo
[19] = tested on: HT-29; assay: Potency index, ratio of IC50 of methylene blue to IC50 of compound for cytotoxicity against human HT-29 cells assessed as reduction in cell viability incubated for 1 hr followed by light irradiation at 3.2 J/cm2 for 30 sec and measured after 24 hrs by MTT assay; format: functional
[20] = tested on: HT-29; assay: Antitumor activity against human HT-29 cells xenografted in BALB/c mouse assessed as reduction in tumor volume at 2 mg/kg, iv after 2 hrs irradiated with light and measured on day 5; format: functional, organism-based
[21] = Toxicity in BALB/c mouse xenografted with human HT-29 cells assessed as damage on lung at 2 mg/kg, iv after 2 hrs irradiated with light and measured on day 24; format: organism-based; details: in vivo
[22] = Toxicity in BALB/c mouse xenografted with human HT-29 cells assessed as damage in spleen at 2 mg/kg, iv after 2 hrs irradiated with light and measured on day 24; format: organism-based; details: in vivo
[23] = Cmax in Sprague-Dawley rat at 2 mg/kg, iv measured upto 24 hrs by fluorescence based assay; format: ADME, organism-based; design: dose 2 mg/kg, route intravenous; details: in vivo
[24] = Clearance in Sprague-Dawley rat at 2 mg/kg, iv measured upto 24 hrs by fluorescence based assay; format: ADME, organism-based; details: in vivo
[25] = Toxicity in BALB/c mouse xenografted with human HT-29 cells assessed as damage on liver at 2 mg/kg, iv after 2 hrs irradiated with light and measured on day 24; format: organism-based; details: in vivo
[26] = MRT (0 to infinity) in Sprague-Dawley rat at 2 mg/kg, iv measured upto 24 hrs by fluorescence based assay; format: ADME, organism-based; details: in vivo
[27] = Half life in Sprague-Dawley rat at 2 mg/kg, iv measured upto 24 hrs by fluorescence based assay; format: ADME, organism-based; details: in vivo
[28] = tested on: HT-29; assay: Antitumor activity against human HT-29 cells xenografted in BALB/c mouse assessed as reduction in tumor growth at 2 mg/kg, iv after 2 hrs irradiated with light and measured on day 5; format: functional, organism-based
[29] = Drug localization in mitochondria of human WI38 cells at 0.5 uM measured after 1 hr by Mito-GFP based confocal laser scanning microscopy; format: ADME; details: wi-38, 1 h
[30] = tested on: WI-38; assay: Cytotoxicity against human WI38 cells assessed as reduction in cell viability incubated for 24 hrs in dark by MTT assay; format: cell-based; details: WI-38, 24 h
[31] = AUC (0 to infinity) in Sprague-Dawley rat at 2 mg/kg, iv measured upto 24 hrs by fluorescence based assay; format: ADME, organism-based; design: dose 2 mg/kg, route intravenous, time infinity; details: in vivo
[32] = Toxicity in BALB/c mouse xenografted with human HT-29 cells assessed as damage on heart tissue at 2 mg/kg, iv after 2 hrs irradiated with light and measured on day 24; format: organism-based; details: in vivo
[33] = Drug uptake in nucleus of human HT-29 cells at 0.5 uM incubated for 5 hrs by Hoechst 33342 staining based fluorescence microscopy; format: ADME, cell-based; details: ht-29, 5 h
[34] = tested on: HT-29; assay: Induction of morphological changes in nucleus of human HT-29 cells at 0.5 uM incubated for 18 hrs in dark by Hoechst 33342 staining based fluorescence microscopy; format: cell-based; details: ht-29, 18 h
[35] = tested on: HT-29; assay: Antitumor activity against human HT-29 cells xenografted in BALB/c mouse assessed as reduction in tumor volume at 2 mg/kg, iv after 2 hrs irradiated with light and measured on day 24; format: functional, organism-based
[36] = Drug localization in mitochondria of human Ht-29 cells at 0.5 uM measured after 1 hr by Mito-GFP based confocal laser scanning microscopy; format: ADME; details: ht-29, 1 h
[37] = Drug localization in lysosome of human HT-29 cells at 0.5 uM measured after 1 hr by LAMP1-GFP based confocal laser scanning microscopy; format: ADME, subcellular; details: ht-29, 1 h

Drug uptake [6]: Active
Structure (SMILES): CCN(CC)c1ccc2nc3c(cc(N)c4nc(C)ccc43)[s+]c2c1.[Cl-]
Activity [1]: 0.08 to 0.14
IC50 [2]: 6.5 µM
Ratio IC50 [3]: 3.6
IC50 [4]: 1.1 µM
Activity [5]: Active
Ratio IC50 [7]: 2.2
IC50 [8]: 0.21 µM
IC50 [9]: 1.8 µM
IC50 [10]: 4.6 µM
Ratio IC50 [11]: 21.9
Activity [12]: Active
Stability [13]: Stable
IC50 [14]: 0.5 µM

Drug uptake [17]: Active
AUCt [18]: 3.78 mg/h/L
Cmax [23]: 2.18 µg/mL
clearance [24]: 0.44 L/h/kg
Drug uptake [6]: Active
MRT inf [26]: 12.4 h
half-life [27]: 7.81 h
Drug uptake [29]: Not Active
AUC [31]: 4.55 µg·h/mL
Drug uptake [33]: Not Active
Drug uptake [36]: Not Active
Drug uptake [37]: Active
Structure (SMILES): CCCNc1cc2[s+]c3cc(N(CC)CC)ccc3nc2c2ccc(C)nc12.[Cl-]
Activity [15]: Active
Activity [16]: Non-Toxic
Activity [1]: 0.08 to 0.14
IC50 [2]: 3.1 µM
Ratio IC50 [3]: 9.1
Ratio IC50 [19]: 235
Activity [20]: Active
Activity [21]: Non-Toxic
Activity [22]: Non-Toxic
IC50 [4]: 1.9 µM
Activity [5]: Active
Activity [25]: Non-Toxic
Ratio IC50 [7]: 5.1
Activity [28]: Active
IC50 [8]: 0.039 µM
IC50 [9]: 0.34 µM
IC50 [10]: 2.1 µM
Ratio IC50 [11]: 53.8
Activity [12]: Active
Stability [13]: Stable
IC50 [30]: > 10 µM
Activity [32]: Non-Toxic
Activity [34]: Non-Toxic
IC50 [14]: 0.37 µM
Activity [35]: Active

Drug uptake [33]: Active
Structure (SMILES): CN(C)c1ccc2nc3ccc(N(C)C)cc3[s+]c2c1.[Cl-] [METHYLENE BLUE ANHYDROUS]
IC50 [8]: 9.2 µM
IC50 [10]: > 10 µM

Drug uptake [6]: Active
Structure (SMILES): CCCCCCCNc1cc2[s+]c3cc(N(CC)CC)ccc3nc2c2ccc(C)nc12.[Cl-]
Activity [1]: 0.08 to 0.14
IC50 [2]: 17.1 µM
Ratio IC50 [3]: 4.6
IC50 [4]: 14.4 µM
Activity [5]: Active
Ratio IC50 [7]: 3.8
IC50 [8]: 1.05 µM
IC50 [9]: 3.7 µM
IC50 [10]: 8.89 µM
Ratio IC50 [11]: 8.47
Activity [12]: Active
Stability [13]: Stable
IC50 [14]: 3.8 µM
